# Measured values: ChEMBL document CHEMBL1144371, “Design, synthesis, and biological evaluation of novel 4-hydroxypyrone derivatives as HIV-1 protease inhibitors” (Bioorg Med Chem Lett, 2005)
# Legend:
# [1] = biological target: T1, Human immunodeficiency virus type 1 protease (Human immunodeficiency virus 1, UniProt Q72874); experiment: Inhibitory concentration against human immunodeficiency virus 1 protease in MT-4 cells; assay type: cell-based, MT4
# CCRF-CEM [2] = experiment: Effective concentration required to protect CEM cells from […] immunodeficiency virus (SIV) infection; assay type: functional, cell-based
# CCRF-CEM [3] = experiment: Ratio of toxic concentration (TC50) to the effective concentration (EC50) (Therapeutic Index) in CEM cells; assay type: functional, Homo sapiens
# [4] = biological target: T1, Human immunodeficiency virus type 1 protease; experiment: Effective concentration required to inhibit human immunodeficiency virus 1 protease in MT-4 cells; assay type: cell-based, MT4
IC50 [1] [µM],EC50 (CCRF-CEM [2]) [µM],EC50 [4] [µM],Structure (SMILES),TI (CCRF-CEM [3])
–,3.8,–,CCCC1(Cc2cccc3ccccc23)CC(=O)C(Sc2ccccc2C)=C(O)O1 (stereo not drawn),>26
–,4.3,–,CCCC1(Cc2cccc3ccccc23)CC(=O)C(Sc2ccccc2)=C(O)O1 (stereo not drawn),13
–,1.7,1.7,CCCC1(Cc2cccc3ccccc23)CC(=O)C(Sc2ccccc2CC)=C(O)O1 (stereo not drawn),46
–,4.1,–,CCCC1(CCc2ccccc2)CC(=O)C(Sc2ccccc2CC)=C(O)O1 (stereo not drawn),>24
–,1.8,–,CCCC1(Cc2ccc3ccccc3c2)CC(=O)C(Sc2ccccc2CC)=C(O)O1 (stereo not drawn),34
–,13,–,O=C1CC(COc2ccccc2)(c2ccccc2)OC(O)=C1Sc1ccccc1 (stereo not drawn),2
–,3.2,–,CCCC1(Cc2ccc3ccccc3c2)CC(=O)C(Sc2ccccc2)=C(O)O1 (stereo not drawn),10
–,9.2,–,Cc1ccc(C)c(SC2=C(O)OC(COc3ccccc3)(c3ccccc3)CC2=O)c1 (stereo not drawn),5
–,8.2,–,Cc1ccccc1SC1=C(O)OC(COc2ccccc2)(c2ccccc2)CC1=O (stereo not drawn),>12
–,5.6,–,CCc1ccccc1SC1=C(O)OC(COc2ccccc2)(c2ccccc2)CC1=O (stereo not drawn),8

# Further lines, the compound ahead of its results:
Structure (SMILES),IC50 [1] [µM],EC50 (CCRF-CEM [2]) [µM],EC50 [4] [µM],TI (CCRF-CEM [3])
CCCC1(CCc2ccccc2)CC(=O)C(C(CC)c2ccccc2)=C(O)O1 (stereo not drawn),0.035,–,–,–
CCCC1(CCc2ccccc2)CC(=O)C(Sc2cc(C)ccc2C)=C(O)O1 (stereo not drawn),–,4.3,–,>23
O=C1CC2(CCCCC2)OC(O)=C1Sc1ccccc1,–,12.3,–,4
CCCC1(CCc2ccccc2)CC(=O)C(Sc2ccccc2C)=C(O)O1 (stereo not drawn),–,3.7,–,>27
Cc1ccc(C)c(SC2=C(O)OC3(CCC(C(C)(C)C)CC3)CC2=O)c1 (stereo not drawn),–,8.3,–,>12
CCCC1(Cc2cccc3ccccc23)CC(=O)C(Sc2cc(C)ccc2C)=C(O)O1 (stereo not drawn),–,4.6,–,11
Cc1ccccc1SC1=C(O)OC2(CCC(C(C)(C)C)CC2)CC1=O (stereo not drawn),–,6.7,–,8
CCCC1(CCc2ccccc2)CC(=O)C(Sc2ccccc2)=C(O)O1 (stereo not drawn),–,4.6,–,>22
Cc1ccc(C)c(SC2=C(O)OC3(CCCCC3)CC2=O)c1,–,3.6,–,>28
CC(C)(C)C1CCC2(CC1)CC(=O)C(Sc1ccccc1)=C(O)O2 (stereo not drawn),–,> 5,–,1
CCc1ccccc1SC1=C(O)OC2(CCCCC2)CC1=O,–,3.9,–,>26
Cc1ccccc1SC1=C(O)OC2(CCCCC2)CC1=O,–,3.3,–,>30
CCc1ccccc1SC1=C(O)OC2(CCC(C(C)(C)C)CC2)CC1=O (stereo not drawn),–,8.1,–,3
Cc1ccc(C(C)(C)C)c(SC2=C(O)OC(CCc3ccccc3)(C(C)C)CC2=O)c1 (stereo not drawn),0.0011,–,15,–
CCCC1(Cc2ccc3ccccc3c2)CC(=O)C(Sc2ccccc2C)=C(O)O1 (stereo not drawn),–,2,–,17
CCCC1(Cc2ccc3ccccc3c2)CC(=O)C(Sc2cc(C)ccc2C)=C(O)O1 (stereo not drawn),–,4,–,10
CCC(c1ccccc1)c1c(O)c2ccccc2oc1=O (stereo not drawn) [PHENPROCOUMON],1,–,–,–
